Here are results for 14 compounds from patent publication US7598258B2, “Quinoline derivatives and quinazoline derivatives inhibiting autophosphorylation of macrophage colony stimulating factor receptor” (Kirin Beer Kabushiki Kaisha, priority 2002, dated 2009).

pIC50: −log10 of the molar value.

The target in this experiment is T1, mouse c-fms (Mus musculus, UniProt P09581).
T1 construct: Macrophage-like cell line BAC-1.2F5 which expresses c-fms as a M-CSF receptor on cell membranes; endogenous in cells; host or cells: BAC-1.2F5 mouse macrophage-like cell line
T1 sequence (P09581 20-977): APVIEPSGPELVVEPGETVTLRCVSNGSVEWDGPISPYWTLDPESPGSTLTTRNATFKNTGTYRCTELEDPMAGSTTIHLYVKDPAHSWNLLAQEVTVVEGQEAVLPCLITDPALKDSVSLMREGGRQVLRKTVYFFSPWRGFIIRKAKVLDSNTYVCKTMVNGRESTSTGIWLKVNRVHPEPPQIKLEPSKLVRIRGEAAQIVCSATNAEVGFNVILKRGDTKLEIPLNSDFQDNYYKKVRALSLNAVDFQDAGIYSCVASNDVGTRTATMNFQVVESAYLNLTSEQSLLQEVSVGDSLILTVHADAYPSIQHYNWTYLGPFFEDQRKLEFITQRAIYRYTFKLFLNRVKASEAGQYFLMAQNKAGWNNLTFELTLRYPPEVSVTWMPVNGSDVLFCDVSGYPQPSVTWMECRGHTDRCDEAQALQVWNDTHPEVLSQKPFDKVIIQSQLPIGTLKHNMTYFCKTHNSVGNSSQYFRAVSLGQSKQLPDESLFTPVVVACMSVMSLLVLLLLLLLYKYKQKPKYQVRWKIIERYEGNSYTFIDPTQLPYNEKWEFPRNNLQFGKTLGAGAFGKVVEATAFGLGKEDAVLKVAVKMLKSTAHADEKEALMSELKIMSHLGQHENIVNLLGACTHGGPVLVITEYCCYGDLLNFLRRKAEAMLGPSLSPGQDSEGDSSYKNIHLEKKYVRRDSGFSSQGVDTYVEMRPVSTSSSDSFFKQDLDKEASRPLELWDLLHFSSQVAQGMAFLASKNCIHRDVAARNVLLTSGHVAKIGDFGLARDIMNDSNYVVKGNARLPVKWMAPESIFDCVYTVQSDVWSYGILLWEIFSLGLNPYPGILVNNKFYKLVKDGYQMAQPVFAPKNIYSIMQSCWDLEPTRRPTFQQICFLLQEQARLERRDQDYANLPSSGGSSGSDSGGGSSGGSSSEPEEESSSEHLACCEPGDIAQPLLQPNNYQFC
The experiment is described as follows: Inhibition of c-fms autophosphorylation in macrophage-like cell line BAC-1.2F5 by M-CSF stimulation (ELISA). Conditions: BAC-1.2F5 cells, human recombinant M-CSF 50 ng/ml, read-out: c-fms autophosphorylation 50% inhibitory concentration (IC50). The format is cell-based. An outline of the steps: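 BAC-1.2F5 cells serum-starved (0.1% FCS) 12 h, preincubated with compound 1 h at 37° C, then stimulated 6 min with 50 ng/ml human recombinant M-CSF. Lysates captured on anti-phosphotyrosine plates, detected with anti-c-fms antiserum and peroxidase read-out at 450 nm. IC50 from inhibition normalised between ±M-CSF controls.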
(In general: ELISA stands for enzyme-linked immunosorbent assay.)

On to `COc1cc2nccc(Oc3ccc(NC(=O)N[C@@H](C)c4ccc(F)cc4)cc3Cl)c2cc1OC` [Example 11, N-{3-Chloro-4-[(6,7-dimethoxy-4-quinolyl)oxy]phenyl}-N′-[(1S)-1-(4-fluorophenyl)ethyl]urea], for which the pIC50 was 7.93. The value for `COc1cc2nccc(Oc3ccc(NC(=O)N[C@H](C)c4nccs4)cc3OC)c2cc1OC` [Example 82, N-{4-[(6,7-Dimethoxy-4-quinolyl)oxy]-3-methoxyphenyl}-N′-[(1R)-1-(1,3-thiazol-2-yl)ethyl]urea] was 8.05; that for `COc1cc2c(Oc3ccc(NC(=O)NC(C)c4ccc(F)cc4F)cc3F)ccnc2cc1OCCCN1CCOCC1` (centres unmarked) [Example 66, N-[1-(2,4-Difluorophenyl)ethyl]-N′-(3-fluoro-4-{[6-methoxy-7-(3-morpholinopropoxy)-4-quinolyl]oxy}phenyl)urea] was 7.83. In the case of `COc1cc(Oc2ccnc3cc(OC)c(OC)cc23)ccc1NC(=O)NC(C)c1nc(C)c(C)s1` (centres unmarked) [Example 99, N-{4-[(6,7-Dimethoxy-4-quinolyl)oxy]-2-methoxyphenyl}-N′-[1-(4,5-dimethyl-1,3-thiazol-2-yl)ethyl]urea], the pIC50 is 7.90. Consider `COc1cc2nccc(Oc3ccc(NC(=O)NC(C)c4nc(C)cs4)c(F)c3)c2cc1OC` (centres unmarked) [Example 88, N-{4-[(6,7-Dimethoxy-4-quinolyl)oxy]-2-fluorophenyl}-N′-[1-(4-methyl-1,3-thiazol-2-yl)ethyl]urea], for which the pIC50 is 8.54. Under `COc1cc2nccc(Oc3ccc(NC(=O)N[C@H](C)c4cccc(Br)c4)c(F)c3)c2cc1OC` [Example 63, N-[(1R)-1-(3-Bromophenyl)ethyl]-N′-{4-[(6,7-dimethoxy-4-quinolyl)oxy]-2-fluorophenyl}urea] stands 7.51; under `COc1cc(Oc2ccnc3cc(OC)c(OC)cc23)ccc1NC(=O)NC(C)c1nc(C)cs1` (centres unmarked) [Example 90, N-{4-[(6,7-Dimethoxy-4-quinolyl)oxy]-2-methoxyphenyl}-N′-[1-(4-methyl-1,3-thiazol-2-yl)ethyl]urea], 8.44; under `COc1cc2nccc(Oc3ccc(NC(=O)NC(C)c4nccs4)cc3F)c2cc1OC` (centres unmarked) [Example 73, N-{4-[(6,7-Dimethoxy-4-quinolyl)oxy]-3-fluorophenyl}-N′-[1-(1,3-thiazol-2-yl)ethyl]urea], 8.52. The value for `COc1cc2nccc(Oc3ccc(NC(=O)N[C@H](C)c4nccs4)c(C(F)(F)F)c3)c2cc1OC` [Example 85, N-[4-[(6,7-Dimethoxy-4-quinolyl)oxy]-2-(trifluoromethyl)phenyl]-N′-[(1R)-1-(1,3-thiazol-2-yl)ethyl]urea] was 7.76.

Consider `COc1cc2nccc(Oc3ccc(NC(=O)N[C@@H](C)c4nccs4)c(C(F)(F)F)c3)c2cc1OC` [Example 84, N-[4-[(6,7-Dimethoxy-4-quinolyl)oxy]-2-(trifluoromethyl)phenyl]-N′-[(1S)-1-(1,3-thiazol-2-yl)ethyl]urea], for which the pIC50 is 7.99. In the case of `COc1cc2nccc(Oc3cc(C)c(NC(=O)N[C@@H](C)c4ccc(F)cc4)cc3C)c2cc1OC` [Example 8, N-{4-[(6,7-Dimethoxy-4-quinolyl)oxy]-2,5-dimethylphenyl}-N′-[(1S)-1-(4-fluorophenyl)ethyl]urea], the pIC50 was 7.65. With `COc1cc2nccc(Oc3ccc(NC(=O)NC(C)c4nccs4)c(F)c3)c2cc1OC` (centres unmarked) [Example 70, N-{4-[(6,7-Dimethoxy-4-quinolyl)oxy]-2-fluorophenyl}-N′-[1-(1,3-thiazol-2-yl)ethyl]urea], the pIC50 is 8.44. Turning to `COc1cc2nccc(Oc3cc(C)c(NC(=O)N[C@H](C)c4nccs4)cc3C)c2cc1OC` [Example 87, N-{4-[(6,7-Dimethoxy-4-quinolyl)oxy]-2,5-dimethylphenyl}-N′-[(1R)-1-(1,3-thiazol-2-yl)ethyl]urea], the pIC50 is 7.58. Under `COc1cc2nccc(Oc3ccc(NC(=O)NC(C)c4ncc(C)s4)cc3F)c2cc1OC` (centres unmarked) [Example 102, N-{4-[(6,7-Dimethoxy-4-quinolyl)oxy]-3-fluorophenyl}-N′-[1-(5-methyl-1,3-thiazol-2-yl)ethyl]urea] stands 7.69.
